Reference: PubChem BioAssay (NCI)
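Grown in 96-well plates, cells were treated for 48 hours with each compound at five concentrations. Insufficient inhibition: endpoint recorded as highest concentration tested. At the TGI there is no net growth.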

Experiments:
Experiment in all cases: NCI anticancer screen, dose series, 48 h
786-0 renal = system: 786-0 renal
A498 renal = system: A498 renal
A549 NSCLC = system: A549 NSCLC
ACHN renal = system: ACHN renal
BT-549 breast = system: BT-549 breast
CAKI-1 renal = system: CAKI-1 renal
CCRF-CEM leukemia = system: CCRF-CEM leukemia
COLO 205 colon = system: COLO 205 colon
DU-145 prostate = system: DU-145 prostate
EKVX NSCLC = system: EKVX NSCLC
HCC-2998 colon = system: HCC-2998 colon
HCT-116 colon = system: HCT-116 colon
HCT-15 colon = system: HCT-15 colon
HL-60(TB) leukemia = system: HL-60(TB) leukemia
HOP-62 NSCLC = system: HOP-62 NSCLC
HOP-92 NSCLC = system: HOP-92 NSCLC
HT29 colon = system: HT29 colon
IGROV1 ovarian = system: IGROV1 ovarian
K-562 leukemia = system: K-562 leukemia
KM12 colon = system: KM12 colon
M14 melanoma = system: M14 melanoma
MALME-3M melanoma = system: MALME-3M melanoma
MCF7 breast = system: MCF7 breast
MDA-MB-231 breast = system: MDA-MB-231 breast
MDA-MB-435 = system: MDA-MB-435
MDA-N = system: MDA-N
MOLT-4 leukemia = system: MOLT-4 leukemia
NCI-H226 lung = system: NCI-H226 lung
NCI-H23 lung = system: NCI-H23 lung
NCI-H460 lung = system: NCI-H460 lung
NCI-H522 lung = system: NCI-H522 lung
NCI/ADR-RES ovarian = system: NCI/ADR-RES ovarian
OVCAR-3 ovarian = system: OVCAR-3 ovarian
OVCAR-4 ovarian = system: OVCAR-4 ovarian
OVCAR-5 ovarian = system: OVCAR-5 ovarian
OVCAR-8 ovarian = system: OVCAR-8 ovarian
PC-3 prostate = system: PC-3 prostate
RPMI-8226 leukemia = system: RPMI-8226 leukemia
RXF 393 renal = system: RXF 393 renal
SF-268 CNS = system: SF-268 CNS
SF-295 CNS = system: SF-295 CNS
SF-539 CNS = system: SF-539 CNS
SK-MEL-2 melanoma = system: SK-MEL-2 melanoma
SK-MEL-28 melanoma = system: SK-MEL-28 melanoma
SK-OV-3 ovarian = system: SK-OV-3 ovarian
SN12C renal = system: SN12C renal
SNB-19 CNS = system: SNB-19 CNS
SNB-75 CNS = system: SNB-75 CNS
SR leukemia = system: SR leukemia
SW-620 colon = system: SW-620 colon
T-47D breast = system: T-47D breast
U251 CNS = system: U251 CNS
UACC-257 melanoma = system: UACC-257 melanoma
UACC-62 melanoma = system: UACC-62 melanoma
UO-31 renal = system: UO-31 renal
LOX IMVI melanoma = system: LOX IMVI melanoma
SK-MEL-5 melanoma = system: SK-MEL-5 melanoma
TK-10 renal = system: TK-10 renal

Measured: TGI

Nn1c(CCCCCCCCc2n[nH]c(=S)n2N)n[nH]c1=S
not listed: LOX IMVI melanoma | SK-MEL-5 melanoma | TK-10 renal
> 100 µM: all other assays above

CN1CCN(Cc2ccccc2)CC1CC#N (stereo not drawn)
not listed: HOP-92 NSCLC | M14 melanoma | NCI-H522 lung | PC-3 prostate | SK-MEL-2 melanoma
> 100 µM: all other assays above
